Results on one compound are retold here after patent publication US20220023257A1, “TREATMENT OF DEMENTIA-ASSOCIATED TAUOPATHIES” (Medizinische Hochschule Hannover (MHH), priority 2018, published 2022).

One experiment deals with T1, 5-HT7R (Homo sapiens, UniProt P34969).
T1 construct: HA (N); expressed in transfected cells; host or cells: N1E-115 (neuroblastoma cells)
Kind of experiment: 5-HT7R-induced Tau aggregation in HEK293 Tau-BiFC cells. Format: cell-based. To be noted: HEK293 Tau-BiFC cells transfected with CFP-5-HT7R; maximum intensity projections.

Experiment [1] relates to eGFP-Tau[R406W]-infected primary cortical neurons. Kind of experiment: Tau tangle formation and apoptosis in eGFP-Tau[R406W]-infected primary cortical neurons. In kind it is cell-based, mice. The settings on record: 50 μM Amisulpride for three days, DIV 10-13. The source says:
White boxes and its corresponding magnifications show representative neurons with and without tau tangles. Arrow heads indicate cells that were counted as tangle-positive. B. Quantification of tau tangles. The number of tangle-positive neurons was counted in a confined area in 6 independent experiments and is represented as a fraction of total number of infected neurons. * indicates statistical significance of p<0.05; ** p<0.01 (N=6; total analyzed cells […], one-way ANOVA, followed by Dunnett's post hoc test). C. […] D. Representative images of DIV14 primary cortical WT neurons infected at DIV10 either with AAV constructs encoding eGFP (white) or eGFP-Tau[R406W] (green). […] Fluorescence from cleaved substrate of active caspase3/7 indicating apoptosis is shown. E. Quantification of apoptosis. Apoptotic cells showing caspase3/7 activity were counted in a confined area in 6 independent experiments and are represented as a fraction of total number of infected neurons.
A. Scheme showing experimental design. […] Neurons were analyzed at DIV 13. […] Arrowheads indicate cells that were counted as tangle-positive. […] Quantification of Tau tangles. The number of tangle-positive neurons was counted in a confined area in at least four independent experiments and is represented as a fraction of the total number of infected neurons. […] GAPDH expression was detected in a soluble fraction. […]

Experiment [2] deals with WT mice injected with AAV-eGFP-Tau[R406W]. In words: Tau hyperphosphorylation and recency test in WT mice after AAV-eGFP-Tau[R406W] injection into the prefrontal cortex. The settings on record: intraperitoneal, once daily for 16 days. In kind it is in vivo. As for the experimental part: A. Scheme showing experimental design: AAV-eGFP-Tau[R406W] was injected stereotactically into the prefrontal cortex (PFC) of WT mice. After 3 weeks of recovery time, animals were intraperitoneally injected with either Vehicle or Amisulpride once daily for 16 days. B. Staining of prefrontal cortical slices of mice after AAV injection and treatment with phospho-specific Tau antibody T205. Representative overview image and magnification are shown. C. Quantification of the mean intensities of eGFP-Tau and pTau over the whole slice and calculation of the pTau/Tau ratio. Data are shown as mean+SEM (N=5). * indicates statistical significance of p<0.05 (one-tailed unpaired t-test). D. Results of test for temporal order recognition memory (recency test). Quantification of exploration time spent with less recent (L) and recent (R) object and discrimination index. Data are presented as mean+SEM (9≥N≥7). * indicates statistical significance of p<0.05, ** p<0.01; n.s., not statistically different (paired t-test and Wilcoxon signed rank test were applied to analyze exploration time, one-way ANOVA was applied to analyze the discrimination ratio).

T1 sequence (P34969 whole entry): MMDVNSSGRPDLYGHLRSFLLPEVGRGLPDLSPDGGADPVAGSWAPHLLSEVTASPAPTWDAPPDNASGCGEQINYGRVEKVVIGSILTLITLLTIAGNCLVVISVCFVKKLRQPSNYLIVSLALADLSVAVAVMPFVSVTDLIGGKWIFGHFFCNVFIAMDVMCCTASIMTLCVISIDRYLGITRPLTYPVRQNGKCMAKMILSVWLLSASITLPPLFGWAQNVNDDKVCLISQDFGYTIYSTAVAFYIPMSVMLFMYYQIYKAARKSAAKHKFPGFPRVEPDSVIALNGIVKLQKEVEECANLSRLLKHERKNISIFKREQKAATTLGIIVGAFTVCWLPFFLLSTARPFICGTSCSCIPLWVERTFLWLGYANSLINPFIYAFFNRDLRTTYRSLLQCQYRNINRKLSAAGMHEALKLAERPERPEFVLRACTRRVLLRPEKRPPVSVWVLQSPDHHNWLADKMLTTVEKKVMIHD
Description for 5-HT7R: Signals are normalized to DMSO-treated pcDNA-transfected cells. Data are represented as means+SDs (N=3). *** indicates statistical significance of p<0.001, n.s. not statistically different (one-way ANOVA, followed by Turkey's post hoc test). […] Representative maximum intensity projections of HEK293 Tau-BiFC cells transfected with control vector (mCerulean, blue) or 5-HT7R (CFP-5-HT7R, blue) upon the indicated treatment. […] Membranes were probed with total Tau (Abcam) and GAPDH antibody (Millipore). Signals are normalized to DMSO-treated pcDNA-transfected cells. Data are represented as means+SDs (N=3). ** indicates statistical significance of p<0.01, *** p<0.001, n.s. not statistically different (one-way ANOVA, followed by Turkey's post hoc test). […] HEK293 Tau-BiFC cells were transfected with (HA)5-HT7R and treated with the indicated concentration of Amisulpride.

As to `CCN1CCCC1CNC(=O)c1cc(S(=O)(=O)CC)c(N)cc1OC` (centres unmarked) [Amisulpride], the “Tangles of Venus-Tau (VN-Tau) in 5-HT7R-transfected cells” value at 5-HT7R is reported as “disappeared”. Also, in experiment [1], the “5-HT7R-induced Tau tangle formation” value is listed as “reduced” and the “apoptosis (caspase3/7 activity)” value is recorded as “reduced”. The “Tau[R406W]-induced memory impairments (recency test)” value in experiment [2] is “ameliorates”. Besides, the “Tau[R406W]-induced Tau hyperphosphorylation (pTau/Tau ratio, T205 staining)” value in experiment [2] (prefrontal cortical slices) was “ameliorates”.
